Test results from PubChem BioAssay AID1845201 (Molecular Pharmacology Branch, DTP, NCI, 2023).

System: COR L88 complex tumor spheroid viability
Experiment: Anticancer human tumor COR L88 cell line growth inhibition;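 note: compound exposure lasted 7 days before viability readout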;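 for viability, T/C: percent of DMSO vehicle-treated spheroids = 100%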
Conditions: for IC50: curve of first compound; for viability, T/C: stronger effect = lower value
Method in brief: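 Single agents and combinations were tested on spheroids built from tumor cells plus HUVEC and hMSC, at half-log dilutions starting at or near clinical Cmax, else 10 microM; final DMSO 0.25% (v/v).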

[1] = second compound 30 pM, first compound 0.0316 µM
[2] = second compound 30 pM, first compound 0.1 µM
[3] = second compound 30 pM, first compound 0.316 µM
[4] = second compound 30 pM, first compound 1 µM
[5] = second compound 30 pM, first compound 3.16 µM
[6] = second compound 30 pM, first compound 10 µM
[7] = second compound 94.9 pM, first compound 0.0316 µM
[8] = second compound 94.9 pM, first compound 0.1 µM
[9] = second compound 94.9 pM, first compound 0.316 µM
[10] = second compound 94.9 pM, first compound 1 µM
[11] = second compound 94.9 pM, first compound 3.16 µM
[12] = second compound 94.9 pM, first compound 10 µM
[13] = second compound 0.0003 µM, first compound 0.0316 µM
[14] = second compound 0.0003 µM, first compound 0.1 µM
[15] = second compound 0.0003 µM, first compound 0.316 µM
[16] = second compound 0.0003 µM, first compound 1 µM
[17] = second compound 0.0003 µM, first compound 3.16 µM
[18] = second compound 0.0003 µM, first compound 10 µM
[19] = second compound 0.000949 µM, first compound 0.0316 µM
[20] = second compound 0.000949 µM, first compound 0.1 µM
[21] = second compound 0.000949 µM, first compound 0.316 µM
[22] = second compound 0.000949 µM, first compound 1 µM
[23] = second compound 0.000949 µM, first compound 3.16 µM
[24] = second compound 0.000949 µM, first compound 10 µM
[25] = second compound 0.003 µM, first compound 0.0316 µM
[26] = second compound 0.003 µM, first compound 0.1 µM
[27] = second compound 0.003 µM, first compound 0.316 µM
[28] = second compound 0.003 µM, first compound 1 µM
[29] = second compound 0.003 µM, first compound 3.16 µM
[30] = second compound 0.003 µM, first compound 10 µM

## CC1COCCN1c1cc(-c2ccnn2C)c2ccnc(-c3ccn[nH]3)c2n1 (stereo not given) + COc1cc2c(cc1O)CCNC21CSC2c3c(OC(C)=O)c(C)c4c(c3C(COC1=O)N1C(O)C3Cc5cc(C)c(OC)c(O)c5C(C21)N3C)OCO4
Second compound 30 pM
  IC50: 111 nM
Second compound 94.9 pM
  IC50: < 31.6 nM
Second compound 0.0003 µM
  IC50: < 31.6 nM
Second compound 0.000949 µM
  IC50: < 31.6 nM
Second compound 0.003 µM
  IC50: < 31.6 nM
[1]
  viability, T/C: 72.1%
[2]
  viability, T/C: 49.5%
[3]
  viability, T/C: 36.7%
[4]
  viability, T/C: 20.3%
[5]
  viability, T/C: 7.72%
[6]
  viability, T/C: 3.13%
[7]
  viability, T/C: 41.8%
[8]
  viability, T/C: 36.9%
[9]
  viability, T/C: 25.6%
[10]
  viability, T/C: 17.2%
[11]
  viability, T/C: 6.6%
[12]
  viability, T/C: 2.46%
[13]
  viability, T/C: 28.6%
[14]
  viability, T/C: 25.4%
[15]
  viability, T/C: 19.9%
[16]
  viability, T/C: 11%
[17]
  viability, T/C: 3.54%
[18]
  viability, T/C: 1.58%
[19]
  viability, T/C: 6.86%
[20]
  viability, T/C: 7.07%
[21]
  viability, T/C: 3.61%
[22]
  viability, T/C: 2.02%
[23]
  viability, T/C: 0.7%
[24]
  viability, T/C: 0.25%
[25]
  viability, T/C: 0.56%
[26]
  viability, T/C: 0.53%
[27]
  viability, T/C: 0.53%
[28]
  viability, T/C: 0.41%
[29]
  viability, T/C: 0.58%
[30]
  viability, T/C: 0.58%

## COc1cc(C)[nH]c(=O)c1CN1CCc2c(Cl)cc(C(OC)C3COC3)c(Cl)c2C1=O (stereo not given) + COc1cc2c(cc1O)CCNC21CSC2c3c(OC(C)=O)c(C)c4c(c3C(COC1=O)N1C(O)C3Cc5cc(C)c(OC)c(O)c5C(C21)N3C)OCO4
Second compound 30 pM
  IC50: > 10000 nM
Second compound 94.9 pM
  IC50: > 10000 nM
Second compound 0.0003 µM
  IC50: < 31.6 nM
Second compound 0.000949 µM
  IC50: < 31.6 nM
Second compound 0.003 µM
  IC50: < 31.6 nM
[1]
  viability, T/C: 109%
[2]
  viability, T/C: 98.7%
[3]
  viability, T/C: 96.8%
[4]
  viability, T/C: 91.4%
[5]
  viability, T/C: 86.7%
[6]
  viability, T/C: 83.2%
[7]
  viability, T/C: 99.4%
[8]
  viability, T/C: 84.2%
[9]
  viability, T/C: 82.2%
[10]
  viability, T/C: 86.2%
[11]
  viability, T/C: 80.9%
[12]
  viability, T/C: 80.9%
[13]
  viability, T/C: 49.3%
[14]
  viability, T/C: 41.2%
[15]
  viability, T/C: 38%
[16]
  viability, T/C: 36.3%
[17]
  viability, T/C: 34.2%
[18]
  viability, T/C: 31.3%
[19]
  viability, T/C: 39.6%
[20]
  viability, T/C: 47.4%
[21]
  viability, T/C: 44.6%
[22]
  viability, T/C: 37.7%
[23]
  viability, T/C: 34.1%
[24]
  viability, T/C: 18.3%
[25]
  viability, T/C: 1.16%
[26]
  viability, T/C: 1.08%
[27]
  viability, T/C: 0.9%
[28]
  viability, T/C: 1.24%
[29]
  viability, T/C: 1.05%
[30]
  viability, T/C: 1.71%
